Assay results published in US7626005B2, “Inhibitors of aminoglycoside 6′-N-acetyltransferases, compositions and uses thereof” (priority 2005, dated 2009).

Key:
AAC(6′)-Iy = biological target: T1, AAC(6′)-Iy (Salmonella enteritidis, UniProt Q9R381); test: Inhibition assay of AAC(6′)-Iy; assay type: biochemical, Salmonella enterica; conditions: for Ki: Table 2
T1 sequence (Q9R381 1-145): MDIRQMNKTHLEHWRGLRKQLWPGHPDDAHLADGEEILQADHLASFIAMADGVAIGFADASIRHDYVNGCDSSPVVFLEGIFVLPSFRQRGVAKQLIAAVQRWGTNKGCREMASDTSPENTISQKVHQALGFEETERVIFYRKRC

AAC(6′)-Ii [1] = biological target: T2, AAC(6′)-Ii (Enterococcus faecium, UniProt Q47764); test: AAC6′-Ii inhibition assay (DTDP-coupled, varying AcCoA); assay type: biochemical; parameters: made in house; host or cells: Escherichia coli BL21; conditions: for type of inhibition (in words): versus acetylCoA; for Vm: maximal velocity from the fit of the inhibition assay; for enhanced inhibition of AAC(6′)-Ii as compared to lysine-CoA conjugates (3a and 3b): relative to 3a and 3b
Protocol: AAC(6′)-Ii was obtained using a previously described protocol (Wright and Ladak, 1997). The Escherichia coli strain BL21 was transformed with a pET22b expression plasmid containing the AAC(6′)-Ii gene. The bacteria were grown in Luria-Bertani (LB) media at 37° C. containing ampicillin (100 μg/mL). Expression of the protein was induced using isopropyl-β-D-thiogalactoside (IPTG). After harvesting the cells by centrifugation and washing them with a 0.85% NaCl solution, the cells were lysed by sonication. AAC(6′)-Ii was purified in a two-step process: firstly, the lysate was ran through a Q-Sepharose ion exchange column (GE Healthsciences), and secondly the AAC(6′)-Ii containing fractions were further purified using a Gentamicin agarose affinity column (BioRad).
Enzyme activity was monitored using a procedure described elsewhere (Williams and Northrop, 1978). Thus, reaction mixtures in HEPES (1 mM, pH=7.5) and containing 4,4′-dithiodipyridine (DTDP, 2 mM), aminoglycoside (200 μM), and AAC(6′)-Ii (25 μg/mL) were prepared with varying concentrations of AcCoA. Reaction volumes were typically 400 μl. The assay mixtures were preincubated for 1 min at 37° C. The initial rates V were fit to Equation S1, where [S] is the concentration of AcCoA, Km is the Michaelis-Menten constant, and Vm is the maximal velocity: [S]/V=[S]/Vm+Km/Vm (S1)
The initial reaction velocity (steady-state) in the presence of inhibitors was measured as described above. The initial rates obtained at various concentrations of inhibitor were fit to Equation S2 for competitive inhibition, to Equation S3 for […] inhibition, or to Equation S4 for uncompetitive inhibition, where [I] is the concentration of inhibitor and Ki is the inhibition constant: [S]/V=[S]/Vm+(1+[I]/Ki)Km/Vm (S2) [S]/V=(1+[I]/Ki)[S]/Vm+Km/Vm (S3) [S]/V=(1+[I]/Ki)[S]/Vm+(1+[I]/Ki)Km/Vm (S4)

AAC(6′)-Ii [2] = biological target: T2, AAC(6′)-Ii; conditions: read-out: Michaelis-Menten constant (Km); acetyl CoA as substrate of AAC(6′)-Ii; cited from earlier work
[3] = Ki (μM), Table 1, inhibition of AAC(6′)-Ii, varying AcCoA
[4] = inhibition constant (Ki), running text b80

T2 sequence (Q47764 1-182): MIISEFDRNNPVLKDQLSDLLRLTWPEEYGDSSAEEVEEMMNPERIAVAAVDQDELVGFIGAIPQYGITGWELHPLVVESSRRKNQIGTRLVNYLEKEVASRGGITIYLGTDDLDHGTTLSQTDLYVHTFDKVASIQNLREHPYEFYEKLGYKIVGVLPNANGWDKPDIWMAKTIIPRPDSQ

Structure (SMILES) | Ki values (in words) (AAC(6′)-Iy) | Ki (AAC(6′)-Iy) [µM] | Ki values (in words) (AAC(6′)-Ii [1]) | Ki (AAC(6′)-Ii [1]; AAC(6′)-Ii [Ki, (μM)], Table 2) [µM] | type of inhibition (in words) (AAC(6′)-Ii [1]) | Ki (AAC(6′)-Ii [1]; [3]) [µM] | Vm (AAC(6′)-Ii [1]; Table 1) [µM/s] | enhanced inhibition of AAC(6′)-Ii as compared to lysine-CoA conjugates (3a and 3b) (AAC(6′)-Ii [1]) [fold] | type of inhibition (in words) (AAC(6′)-Ii [1]; listed as 10) | inhibition of AAC(6′)-Ii (in words) (AAC(6′)-Ii [1]) | Ki (AAC(6′)-Ii [1]; [4]) [µM] | Km (AAC(6′)-Ii [2]) [µM]
CC(C)(COP(=O)(O)OP(=O)(O)OCC1OC(n2cnc3c(N)ncnc32)C(O)C1OP(=O)(O)O)C(O)C(=O)NCCC(=O)NCCSCCCC(=O)NCC1OC(OC2C(N)CC(N)C(O)C2O)C(N)C(O)C1O (centres unmarked) [Compound 10c] | near submicromolar | 2.1 ± 0.3 | submicromolar range | 0.161 ± 0.098 | potent competitive inhibitors | – | – | – | – | – | – | –
CC(C)(COP(=O)(O)OP(=O)(O)OCC1OC(n2cnc3c(N)ncnc32)C(O)C1OP(=O)(O)O)C(O)C(=O)NCCC(=O)NCCSCC(=O)NCC1OC(OC2C(N)CC(N)C(O)C2OC2OC(CO)C(O)C2O)C(N)C(O)C1O (centres unmarked) [Compound 12] | – | 1.1 ± 0.1 | – | 0.119 ± 0.014 | competitive inhibition versus acetylCoA | 0.119 ± 0.014 | 0.14 ± 0.04 | 500 | – | – | – | –
CC(C)(COP(=O)(O)OP(=O)(O)OCC1OC(n2cnc3c(N)ncnc32)C(O)C1OP(=O)(O)O)C(O)C(=O)NCCC(=O)NCCSCC(=O)NCC1OC(OC2C(N)CC(N)C(O)C2O)C(N)C(O)C1O (centres unmarked) [Compound 10a] | near submicromolar | 2.76 ± 0.4 | submicromolar range | 0.076 ± 0.025 | potent competitive inhibitors | 0.076 ± 0.025 | 0.15 ± 0.01 | 500 | competitive inhibition versus acetylCoA | – | – | –
COC(=O)C(CCCCNC(=O)CCSCCNC(=O)CCNC(=O)C(O)C(C)(C)COP(=O)(O)OP(=O)(O)OCC1OC(n2cnc3c(N)ncnc32)C(O)C1OP(=O)(O)O)NC(C)=O (centres unmarked) [Compound 3b] | – | – | – | – | moderate competitive inhibition | ≥ 30 | – | – | – | moderate inhibition | 30 | –
CC(C)(COP(=O)(O)OP(=O)(O)OCC1OC(n2cnc3c(N)ncnc32)C(O)C1OP(=O)(O)O)C(O)C(=O)NCCC(=O)NCCSCCCCC(=O)NCC1OC(OC2C(N)CC(N)C(O)C2O)C(N)C(O)C1O (centres unmarked) [Compound 10d] | near submicromolar | 1.9 ± 0.3 | – | 7.99 ± 2.66 | – | – | – | – | – | – | – | –
COC(=O)C(CCCCNC(=O)CSCCNC(=O)CCNC(=O)C(O)C(C)(C)COP(=O)(O)OP(=O)(O)OCC1OC(n2cnc3c(N)ncnc32)C(O)C1OP(=O)(O)O)NC(C)=O (centres unmarked) [Compound 3a] | – | – | – | – | moderate competitive inhibition | ≥ 130 | – | – | – | moderate inhibition | 130 | –
CC(=O)SCCNC(=O)CCNC(=O)[C@H](O)C(C)(C)COP(=O)(O)OP(=O)(O)OC[C@H]1O[C@@H](n2cnc3c(N)ncnc32)[C@H](O)[C@@H]1OP(=O)(O)O [acetyl CoA, Acetyl Coenzyme A] | – | – | – | – | – | – | – | – | – | – | – | 23.5
CC(C)(COP(=O)(O)OP(=O)(O)OCC1OC(n2cnc3c(N)ncnc32)C(O)C1OP(=O)(O)O)C(O)C(=O)NCCC(=O)NCCSCCC(=O)NCC1OC(OC2C(N)CC(N)C(O)C2O)C(N)C(O)C1O (centres unmarked) [Compound 10b] | near submicromolar | 1.89 ± 0.3 | submicromolar range | 0.043 ± 0.023 | potent competitive inhibitors | – | – | – | – | highest inhibition among all the inhibitors | – | –
